Values joined by “and” are separate entries in the source; they are usually repeats but may differ in a detail not shown here. Equal entries are not always repeated.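 96-well plates; 48 h exposure; 5 concentrations. Endpoints by linear interpolation between flanking doses. Not reached: highest tested concentration assigned. Here, GI50 denotes the concentration required for 50% inhibition of growth. TGI marks complete inhibition of growth.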 *1 amine or outer side, *2 acyl side, *3 side chain or, on linkers, in order; H or OH if unused. Where a SMILES comes first, the peptide text is derived from it. [ ]: non-standard residue; d: D form. The star is where a group is joined. X11 = C/C=C/CC(C)C(O)[C@H](N[*:1])C(=O)[*:2]; Leu(ol) = CC(C)C[C@H](N)CO; Iva = CC[C@](C)(N)C(=O)O; Octanoyl = CCCCCCCC(=O)*; Aib = CC(C)(N)C(=O)O
Each molecule was assayed on MDA-MB-468 breast (assay: growth of human tumour cells (NCI), 48 h).

Going from `CCN(CC)CCCNCc1cc(-c2ccccc2)nc2ccccc12` to `Oc1ccc(-c2nc3ccccc3s2)cc1CN(Cc1ccccn1)Cc1ccccn1`, the GI50 falls from 14.8 µM to 2.48 µM (6-fold).

Going from `COc1cccc(NC(=O)c2sc3nc(C)c(C(O)c4ccccc4)cc3c2N)c1` (stereo not given) to `Nc1c(C(=O)Nc2cccc(F)c2)sc2nc3c(cc12)C(=O)CCC3`, the GI50 falls from 0.27 µM to 0.159 µM (1.7-fold).

Compared with `COc1cc(-c2cc(O)c(-c3ccc4ccccc4n3)c(=O)[nH]2)cc(OC)c1OC`, `COc1ccc([C@@H]2C(=O)N(c3cc(OC)c(OC)c(OC)c3)[C@H]2c2ccc(OC)c(O)c2)cc1` is 140-fold lower in GI50: 3.38 µM for the first, 0.0245 µM for the second.

`CC(=O)C1=C(O)C=C2Oc3c(C(=O)/C=C/c4c(Cl)cccc4Cl)c(O)c(C)c(O)c3[C@]2(C)C1=O` and `Cc1nc2ccccc2c(/C=C/c2ccc(Cl)cc2)c1C(=O)/C=C/c1ccc(C(F)(F)F)cc1` are within 1.5-fold of each other in GI50: 1.19 µM for the first, 1.3 µM for the second.

Going from `C/C=C/CC(C)C(O)[C@H](NC(=O)[C@@H]1CCCN1C(=O)C(C)(C)NC(=O)CCCCCCC)C(=O)N[C@@](C)(CC)C(=O)N[C@@H](CCC(N)=O)C(=O)N[C@H](CCC(N)=O)C(=O)NC(C)(C)C(=O)NC(C)(C)C(=O)N[C@@H](CCC(N)=O)C(=O)N[C@H](CC(C)C)C(=O)N[C@H](CO)CC(C)C` (stereo partly drawn) (Octanoyl-[Aib]P[X11][Iva]Q[dQ][Aib][Aib]Q[dL][Leu(ol)]) to `[N-]=[N+]=NCCCCCC(=O)OC(C(=O)c1ccccc1)c1cccc(OCC(=O)NCCOCCOCCNC(=O)CCCC[C@@H]2SC[C@@H]3NC(=O)N[C@@H]32)c1` (stereo not given in full), the GI50 rises from 1.68 µM to 27.5 µM (16-fold).

Going from `CNC(=O)c1ccccc1Nc1nc(Nc2cc(OC)c(OC)c(OC)c2)ncc1Br` to `COC(=O)c1cc(O)c2cc3c(cc2c1-c1cc(OC)c(OC)c(OC)c1)OCO3`, the GI50 rises from 0.0782 µM to 0.411 µM (5.3-fold).

Going from `COc1ccc2c(=O)cc(C(Cl)(Cl)Cl)oc2c1` to `O=C(COc1cc(O)c2c(=O)cc(-c3ccccc3)oc2c1)Nc1ccccc1C(F)(F)F`, the GI50 rises from 0.383 µM to 4.95 µM (13-fold).

Going from `CC(C)(C)c1cc(-n2c(-c3ccc(Cl)cc3)nc3cc(C(=O)Nc4ccc(Cl)cc4)ccc32)n[nH]1` to `O=C(Nc1ccc(-n2ccc3c(NC(=O)c4ccccc4)ncnc32)cc1)Nc1ccc(Cl)c(Cl)c1`, the GI50 falls from 4.88 µM to 1.92 µM (2.5-fold).

Compared with `O=c1cc(-c2cccc3c2Sc2ccccc2S3)oc(N2CCOCC2)c1`, `Cc1cc(N2CCOCC2)nc(N[C@@H]2CCC[C@H](Nc3ccnc4cc(Cl)ccc34)C2)n1` is 1.6-fold lower in GI50: 2.8 µM for the first, 1.76 µM for the second.

Compared with `O=C(c1ccccc1)C1OC1c1ccc([N+](=O)[O-])cc1` (stereo not given), `O=C(c1ccccc1)C(CN1CCCCC1)c1ccccc1` (stereo not given) is 4.3-fold lower in GI50: 2.28 µM for the first, 0.536 µM for the second.

Compared with `COc1cc(NCCCN=C(N)NC(N)=NC(C)C)c2ncccc2c1`, `CCN(CC)CC(O)CNc1c2ccc([N+](=O)[O-])cc2nc2cc(OC)c(OC)cc12` (stereo not given) is 1.5-fold higher in GI50: 0.112 µM for the first, 0.172 µM for the second.

Compared with `C=C1CCC2C3(C)COC(c4ccccc4)OC3CCC2(C)C1/C=C/C1=CCOC1=O` (stereo not given), `c1ccc(CN2COc3c(ccc4c3OCN(Cc3ccccc3)C4)C2)cc1` is 3.1-fold lower in GI50: 2.49 µM for the first, 0.796 µM for the second.

Compared with `NCCOCCOCCNc1nc(-c2ccccc2)nc(N2CCN(c3ccccn3)CC2)n1`, `O=C(Cc1ccc(F)c(F)c1)Nc1cc(C2(C(F)(F)F)CC2)nn1Cc1ccccc1` is 2.7-fold lower in GI50: 7.23 µM for the first, 2.67 µM for the second.

Going from `O=C(CCC(=O)N1CCOCC1)OCCCCCCSc1ccc([N+](=O)[O-])c2nonc12` to `CC(C)=CCC/C(C)=C/CC/C(C)=C/CSc1ccccc1C(=O)O`, the GI50 rises from 1.11 µM to 27.5 µM (25-fold).

Going from `CS(=O)(=O)CCc1cccc(C(=O)c2cnn(-c3ccc(F)cc3)c2N)c1` to `O=C(Nc1ccncc1)C(=O)c1cn(S(=O)(=O)c2ccc(Cl)cc2)c2ccccc12`, the GI50 falls from over 25 µM to 0.746 µM.

Going from `CN(Cc1ccccc1)c1ccc(CO)c(Cl)c1` to `O=Nc1ccc(NO)c2ccccc12`, the GI50 rises from 0.0795 µM to 13.9 µM (170-fold).

Going from `O=C1C=CC(=Nc2cc(Br)c(O)c(Br)c2)C=C1` to `Cc1nnc(-c2cccc(-c3ccc(C(=O)NCC4CC4)cc3)c2)o1`, the GI50 rises from 10.5 µM to over 25 µM.

Going from `COCc1cc(C(=O)Nc2cc([C@H]3CC[C@@H](OC(=O)NC(C)C)C3)[nH]n2)n(C)n1` to `C=CC(=O)Nc1cc(C)ccc1Nc1nc(Nc2cc(OC)ncc2C)ncc1C(F)(F)F`, the GI50 falls from 13.5 µM to 1.86 µM (7.3-fold).

First: O=C(NCCCO)c1cc(Cl)ccc1O
Second: CC(=O)c1c(C)[nH]c(-c2nc3ccc(N4CCN(C)CC4)cc3[nH]2)c1-c1ccc(N(C)C)cc1
The GI50 of the first is 5.9-fold higher: 1.19 µM for the first, 0.2 µM for the second.

Compared with `C=CCN(C)S(=O)(=O)/N=C1\NC(=O)NC1=C(Cl)Cl`, `O=C(O)C1(C(=O)O)CCC1.[NH2-].[NH2-].[Pt+2]` is 76-fold higher in GI50: 0.578 µM for the first, 43.7 µM for the second.

In the case of `CC(C)=CCC[C@](C)(O)[C@H]1CC[C@]2(C)[C@@H]1CC[C@@H]1[C@@]3(C)CC/C(=N/O)C(C)(C)[C@@H]3CC[C@]12C`, the GI50 is reported as 8.7 µM.

Going from `CCN(CC)CCCNCc1cc(-c2ccccc2)nc2ccccc12` to `Oc1ccc(-c2nc3ccccc3s2)cc1CN(Cc1ccccn1)Cc1ccccn1`, the TGI falls from 30.8 µM to 17 µM (1.8-fold).

Compared with `COc1cccc(NC(=O)c2sc3nc(C)c(C(O)c4ccccc4)cc3c2N)c1` (stereo not given), `Nc1c(C(=O)Nc2cccc(F)c2)sc2nc3c(cc12)C(=O)CCC3` is higher in TGI: 30.2 µM for the first, over 100 µM for the second.

First: COc1cc(-c2cc(O)c(-c3ccc4ccccc4n3)c(=O)[nH]2)cc(OC)c1OC
Second: COc1ccc([C@@H]2C(=O)N(c3cc(OC)c(OC)c(OC)c3)[C@H]2c2ccc(OC)c(O)c2)cc1
The TGI of the first is 390-fold higher: 26 µM for the first, 0.0671 µM for the second.

Going from `CC(=O)C1=C(O)C=C2Oc3c(C(=O)/C=C/c4c(Cl)cccc4Cl)c(O)c(C)c(O)c3[C@]2(C)C1=O` to `Cc1nc2ccccc2c(/C=C/c2ccc(Cl)cc2)c1C(=O)/C=C/c1ccc(C(F)(F)F)cc1`, the TGI falls from 4.89 µM to 2.93 µM (1.7-fold).

Going from `C/C=C/CC(C)C(O)[C@H](NC(=O)[C@@H]1CCCN1C(=O)C(C)(C)NC(=O)CCCCCCC)C(=O)N[C@@](C)(CC)C(=O)N[C@@H](CCC(N)=O)C(=O)N[C@H](CCC(N)=O)C(=O)NC(C)(C)C(=O)NC(C)(C)C(=O)N[C@@H](CCC(N)=O)C(=O)N[C@H](CC(C)C)C(=O)N[C@H](CO)CC(C)C` (stereo partly drawn) (Octanoyl-[Aib]P[X11][Iva]Q[dQ][Aib][Aib]Q[dL][Leu(ol)]) to `[N-]=[N+]=NCCCCCC(=O)OC(C(=O)c1ccccc1)c1cccc(OCC(=O)NCCOCCOCCNC(=O)CCCC[C@@H]2SC[C@@H]3NC(=O)N[C@@H]32)c1` (stereo not given in full), the TGI rises from 3.35 µM to over 100 µM.

First: CNC(=O)c1ccccc1Nc1nc(Nc2cc(OC)c(OC)c(OC)c2)ncc1Br
Second: COC(=O)c1cc(O)c2cc3c(cc2c1-c1cc(OC)c(OC)c(OC)c1)OCO3
The TGI of the first is 72-fold lower: 0.625 µM for the first, 44.7 µM for the second.

First: COc1ccc2c(=O)cc(C(Cl)(Cl)Cl)oc2c1
Second: O=C(COc1cc(O)c2c(=O)cc(-c3ccccc3)oc2c1)Nc1ccccc1C(F)(F)F
The TGI of the first is 2.5-fold lower: 14.4 µM for the first, 35.8 µM for the second.

Compared with `CC(C)(C)c1cc(-n2c(-c3ccc(Cl)cc3)nc3cc(C(=O)Nc4ccc(Cl)cc4)ccc32)n[nH]1`, `O=C(Nc1ccc(-n2ccc3c(NC(=O)c4ccccc4)ncnc32)cc1)Nc1ccc(Cl)c(Cl)c1` is lower in TGI: over 100 µM for the first, 8.04 µM for the second.

Compared with `O=c1cc(-c2cccc3c2Sc2ccccc2S3)oc(N2CCOCC2)c1`, `Cc1cc(N2CCOCC2)nc(N[C@@H]2CCC[C@H](Nc3ccnc4cc(Cl)ccc34)C2)n1` is 3.6-fold lower in TGI: 14.5 µM for the first, 4.04 µM for the second.

Going from `O=C(c1ccccc1)C1OC1c1ccc([N+](=O)[O-])cc1` (stereo not given) to `O=C(c1ccccc1)C(CN1CCCCC1)c1ccccc1` (stereo not given), the TGI falls from 6.79 µM to 1.9 µM (3.6-fold).

`COc1cc(NCCCN=C(N)NC(N)=NC(C)C)c2ncccc2c1` and `CCN(CC)CC(O)CNc1c2ccc([N+](=O)[O-])cc2nc2cc(OC)c(OC)cc12` (stereo not given) are within 1.5-fold of each other in TGI: 0.501 µM for the first, 0.475 µM for the second.

`C=C1CCC2C3(C)COC(c4ccccc4)OC3CCC2(C)C1/C=C/C1=CCOC1=O` (stereo not given) and `c1ccc(CN2COc3c(ccc4c3OCN(Cc3ccccc3)C4)C2)cc1` are within 1.5-fold of each other in TGI: 6.41 µM for the first, 5.2 µM for the second.

Compared with `NCCOCCOCCNc1nc(-c2ccccc2)nc(N2CCN(c3ccccn3)CC2)n1`, `O=C(Cc1ccc(F)c(F)c1)Nc1cc(C2(C(F)(F)F)CC2)nn1Cc1ccccc1` is 2.2-fold lower in TGI: 20.6 µM for the first, 9.41 µM for the second.

First: O=C(CCC(=O)N1CCOCC1)OCCCCCCSc1ccc([N+](=O)[O-])c2nonc12
Second: CC(C)=CCC/C(C)=C/CC/C(C)=C/CSc1ccccc1C(=O)O
The TGI of the first is lower: 2.9 µM for the first, over 90 µM for the second.

Compared with `CS(=O)(=O)CCc1cccc(C(=O)c2cnn(-c3ccc(F)cc3)c2N)c1`, `O=C(Nc1ccncc1)C(=O)c1cn(S(=O)(=O)c2ccc(Cl)cc2)c2ccccc12` is lower in TGI: over 25 µM for the first, 9.11 µM for the second.

Going from `CN(Cc1ccccc1)c1ccc(CO)c(Cl)c1` to `O=Nc1ccc(NO)c2ccccc12`, the TGI rises from 0.248 µM to 44.4 µM (180-fold).

`O=C1C=CC(=Nc2cc(Br)c(O)c(Br)c2)C=C1` and `Cc1nnc(-c2cccc(-c3ccc(C(=O)NCC4CC4)cc3)c2)o1` cannot be ordered by TGI: 30.5 µM for the first, over 25 µM for the second.

Going from `COCc1cc(C(=O)Nc2cc([C@H]3CC[C@@H](OC(=O)NC(C)C)C3)[nH]n2)n(C)n1` to `C=CC(=O)Nc1cc(C)ccc1Nc1nc(Nc2cc(OC)ncc2C)ncc1C(F)(F)F`, the TGI falls from 35 µM to 6.06 µM (5.8-fold).

Compared with `O=C(NCCCO)c1cc(Cl)ccc1O`, `CC(=O)c1c(C)[nH]c(-c2nc3ccc(N4CCN(C)CC4)cc3[nH]2)c1-c1ccc(N(C)C)cc1` is 2.5-fold lower in TGI: 7.18 µM for the first, 2.89 µM for the second.

Compared with `C=CCN(C)S(=O)(=O)/N=C1\NC(=O)NC1=C(Cl)Cl`, `O=C(O)C1(C(=O)O)CCC1.[NH2-].[NH2-].[Pt+2]` is higher in TGI: 15.6 µM for the first, over 216 µM for the second.

Molecule `CC(C)=CCC[C@](C)(O)[C@H]1CC[C@]2(C)[C@@H]1CC[C@@H]1[C@@]3(C)CC/C(=N/O)C(C)(C)[C@@H]3CC[C@]12C` has a TGI of 71.3 µM.

`C[n+]1c2cc(N)ccc2cc2ccc(N)cc21` was tested, and the GI50 was 342 nM [middle of 4 runs].
For `Cc1nc(-c2cn3c(n2)-c2ccc(-c4cnn(C(C)(C)C(N)=O)c4)cc2OCC3)n(C(C)C)n1`, the GI50 was 0.134 µM and 0.0499 µM.

In the case of `Cc1nc(-c2cn3c(n2)-c2ccc(-c4cnn(C(C)(C)C(N)=O)c4)cc2OCC3)n(C(C)C)n1`, the TGI is reported as 1.55 µM and 0.822 µM.
